Test results reported in patent publication US20050004102A1, “Monohydroxycarbamazepine for use in the preparation of a medicament for the treatment of affective and attention disorder and neuropathic pain” (priority 2001, published 2005).

How the values were obtained:
[1] = test system: social withdrawal of intruder mice; assay: social withdrawal of intruder mice; format: in vivo; conditions: dose range of 1 to about 100 mg/kg p.o.
From the text: The activity of the compound of formula I in the treatment of affective and attention disorders treatment is also evidenced, for example, in tests suitable for detecting drugs having potential behavioural desinhibitory and/or sociotropic effects which are thought to be relevant for recovery from social withdrawal, a cardinal feature of depression and related psychiatric conditions. For instance, drug effects on social withdrawal of intruder mice can be evaluated by using the basic method as described in Triangle, 1982, 21:95-105 and J. Clin. Psychiatry, 1994, 55:9 (suppl. B) 4-7.

[2] = test system: chronic pain in patients with diabetic neuropathy; assay: clinical trials in chronic pain in patients with diabetic neuropathy; format: in vivo; conditions: Maintenance and Follow-up Periods
From the text: The activity of the compound of formula I in the treatment of neuropathic pain and related disorders can be confirmed in clinical trials evaluating the efficacy of a compound in treating chronic pain in patients with diabetic neuropathy.

[3] = test system: neuropathic mechanical hyperalgesia; assay: model of neuropathic pain in the guinea pig (partial sciatic nerve ligation, mechanical hyperalgesia); format: in vivo, Dunkin Hartley guinea pigs; conditions: paw withdrawal threshold, up to 6 hours
From the text: The direct activity of the compound of formula I in the treatment of neuropathic pain is evidenced, for example, in the following model of neuropathic pain in the guinea pig: Dunkin Hartley guinea pigs are anaesthetised with enflurane (in N2O:O2 for guinea pigs) and the left sciatic nerve is exposed and partially ligated with thread. This procedure produces a mechanical hyperalgesia, which develops within 2-3 days and is maintained for at least 4 weeks. Paw withdrawal thresholds to a pressure stimulus are measured using an analgesymeter. Mechanical thresholds are taken on both the ipsilateral (ligated) and contralateral (unligated) paw prior to and then up to 6 hours following drug or vehicule administration. Reversal of hyperalgesia at each time point is calculated. Groups of 6 animals are used. Statistical analysis is carried out on withdrawal threshold readings using ANOVA followed by Tukey's HSD test.

GABA turnover = GABA turnover determination after maximal inhibition of GABA-T; format: in vivo; conditions: doses of 30 to about 300 mg/kg p.o.
From the text: The activity of the compound of formula I on GABA turnover is evidenced in the following experiment: The determination of GABA turnover Is based on the linear increase in GABA level observed after the maximal inhibition of gamma-aminobutyric acid transaminase (GABA-T). The values obtained with this approach for the rate of GABA synthesis are independent of the inhibitors used and within the catalytic capacity of the enzymes involved in the GABA shunt.

## NC(=O)N1c2ccccc2CC(O)c2ccccc21 (centres unmarked) [compound of formula I, 10-hydroxy-10,11-dihydro-carbamazepine]
[1]
  social investigation in the treated mouse: increases social investigation
[2]
  pain severity ratings relative to placebo: decrease pain severity ratings
[3]; 3 to about 100 mg/kg s.c.
  reversal of neuropathic mechanical hyperalgesia: significantly and dose-dependently reverses
[3]; 10 to about 100 mg/kg p.o.
  reversal of neuropathic mechanical hyperalgesia: significantly and dose-dependently reverses
GABA turnover
  GABA turnover rate: dose-dependently inhibits
